According to patent US10538789B2, “Methods for biosynthesis of isoprene” (INVISTA NORTH AMERICA S.A.R.L., priority 2013, dated 2020):

What was measured:
[1] = tested on: mevalonate diphosphate decarboxylase of SEQ ID NO: 8 (AAK33797.1); assay: GHMP superfamily enzyme activity assay, headspace GC-MS for isoprene; assay type: biochemical, Streptococcus pyogenes; details: 10 mM substrate, 30 mM ATP, pH 7.0, 30° C., 24 h, GC-MS versus empty vector control
Description: (§1) Each of the sequences encoding a C-terminal His-tagged gene encoding the mevalonate diphosphate decarboxylase of SEQ ID NOs: 8, 9, 10, and 11 respectively (see FIGS. 9A-9F) and the mevalonate 3-kinase of SEQ ID NO: 12 (see FIGS. 9A-9F) was cloned into a PD681-CH expression vector under control of the rhapBAD promoter, such that a C-terminal HIS tagged GHMP superfamily enzyme could be produced. Each expression vector was transformed into a BL21[DE3] E. coli host. The resulting recombinant E. coli strains were cultivated at 37° C. in a 5L shake flask culture containing 1L Luria Broth (LB) media and kanamycin antibiotic selection pressure, with shaking at 90 rpm. At an OD600 between 0.6 to 0.8, the culture was induced with L-rhamnose to a final concentration of 2 g/L. The cultures was induced for 6 h at 37° C. The pellets from the induced shake flask cultures were harvested via centrifugation and stored at −20° C. […]
(§2) Each enzyme activity assay was performed in an assay buffer composed of 100 mM HEPES (pH=7.0), 100 mM KCl, 30 mM MgCl2, 30 mM ATP, 2 mM DTT and 10 mM of 3-methyl-3-hydroxypent-4-enoate as substrate. […] The headspace of each glass vial was analysed by GC-MS for isoprene and compared to the empty vector control. […]

[2] = tested on: mevalonate diphosphate decarboxylase of SEQ ID NO: 10 (CAR68209.1); assay: as above; assay type: biochemical, Streptococcus pneumoniae; details: 10 mM substrate, 30 mM ATP, pH 7.0, 30° C., 24 h, GC-MS versus empty vector control
Description: as §1, §2

[3] = molecular target: T1, mevalonate diphosphate decarboxylase of SEQ ID NO: 11 (CAA66158.1) (Saccharomyces cerevisiae, UniProt P32377); assay: as above; assay type: biochemical; details: 10 mM substrate, 30 mM ATP, pH 7.0, 30° C., 24 h, GC-MS versus empty vector control
T1 construct: His tag (C); made in house; host or cells: E. coli BL21[DE3]
T1 sequence (P32377 1-396): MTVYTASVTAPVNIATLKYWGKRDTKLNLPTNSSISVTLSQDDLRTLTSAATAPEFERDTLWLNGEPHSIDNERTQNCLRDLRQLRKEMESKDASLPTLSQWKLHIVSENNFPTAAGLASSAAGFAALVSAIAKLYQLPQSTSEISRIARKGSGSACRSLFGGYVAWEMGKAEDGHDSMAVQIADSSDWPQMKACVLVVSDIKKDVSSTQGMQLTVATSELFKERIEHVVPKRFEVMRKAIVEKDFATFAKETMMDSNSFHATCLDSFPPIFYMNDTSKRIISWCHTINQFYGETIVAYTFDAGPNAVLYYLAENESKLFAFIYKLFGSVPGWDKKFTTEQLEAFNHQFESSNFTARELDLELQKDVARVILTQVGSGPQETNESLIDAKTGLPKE
Description: as §1, §2

[4] = molecular target: T2, mevalonate 3-kinase of SEQ ID NO: 12 (CAC12426.1) (Thermoplasma acidophilum, UniProt Q9HIN1); assay: as above; assay type: biochemical; details: 10 mM substrate, 30 mM ATP, pH 7.0, 30° C., 24 h, GC-MS versus empty vector control
T2 construct: His tag (C); made in house; host or cells: E. coli BL21[DE3]
T2 sequence (Q9HIN1 1-318): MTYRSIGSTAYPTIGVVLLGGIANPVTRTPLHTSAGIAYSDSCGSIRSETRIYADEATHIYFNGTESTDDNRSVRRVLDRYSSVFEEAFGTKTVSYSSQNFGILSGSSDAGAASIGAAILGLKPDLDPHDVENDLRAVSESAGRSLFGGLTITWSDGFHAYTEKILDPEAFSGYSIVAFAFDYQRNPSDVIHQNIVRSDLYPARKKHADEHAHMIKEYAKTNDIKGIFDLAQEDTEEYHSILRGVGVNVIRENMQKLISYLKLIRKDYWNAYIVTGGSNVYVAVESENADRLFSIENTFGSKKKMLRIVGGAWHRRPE
Description: as §1, §2

[5] = tested on: mevalonate diphosphate decarboxylase of SEQ ID NO: 9 (AHF01884.1); assay: as above; assay type: biochemical, Thioalkalimicrobium aerophilum; details: 10 mM substrate, 30 mM ATP, pH 7.0, 30° C., 24 h, GC-MS versus empty vector control
Description: as §1, §2

[6] = molecular target: T3, enoyl-CoA hydratase encoded by phaJ (SEQ ID NO: 16) (Aeromonas caviae, UniProt O32472); assay: Enzyme activity assay in the reverse (dehydration) direction, LC-MS; assay type: biochemical; details: 1 mM substrate, 5 μM purified enzyme, 10 mM ammonium acetate pH 8, 30° C., 1 h
T3 construct: His tag (C); made in house; host or cells: E. coli BL21[DE3]
T3 sequence (O32472 1-134): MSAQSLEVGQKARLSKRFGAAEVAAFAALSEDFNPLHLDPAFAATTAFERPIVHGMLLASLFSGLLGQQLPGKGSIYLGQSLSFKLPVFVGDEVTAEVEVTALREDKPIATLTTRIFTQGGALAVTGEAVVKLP
Protocol: (§3) The C-terminal his-tagged phaJ gene (SEQ ID NO: 16) from Aeromonas punctata was cloned into a pE23a expression vector under the T7 promoter. The expression vector was transformed into a BL21[DE3] E. coli host.
(§4) The resulting recombinant E. coli strain was cultivated in a 1L shake flask culture containing 100 mL Luria Broth media at 30° C., shaking at 200 rpm. The culture was induced using 1 mM IPTG for 2 h.
(§5) The pellet from each of the induced shake flask cultures was harvested by centrifugation. The pellet was resuspended in 20 mM HEPES (pH=7.2), 1 mM PMSF and 29U benzonase. The resuspended pellet was lysed via sonication. The cell debris was separated from the supernatant via centrifugation and filtered using a 0.2 μm filter.
(§6) The phaJ enzyme was purified from the supernatant using Ni-affinity chromatography and concentrated to 1.25 mg/mL.
(§7) The native enzyme activity assay in the reverse (dehydration) direction was undertaken in a buffer composed of 10 mM ammonium acetate (pH=8) and 1 mM of racemic 3-hydroxybutanoyl-CoA. The enzyme activity assay reaction was initiated by adding 5 μM of purified enoyl-CoA hydratase to the assay buffer containing the substrate and incubated at 30° C. for 1 h. The enzyme encoded by phaJ accepted 3-hydroxybutanoyl-CoA as substrate as confirmed via LC-MS.
as §7, with “non-native” for “native”, “3-methyl-3-hydroxypentanoyl-CoA.” for “racemic 3-hydroxybutanoyl-CoA.”, “3-methyl-3-hydroxypentanoyl-CoA” for “3-hydroxybutanoyl-CoA”
The non-native enzyme activity assay in the reverse (dehydration) direction was undertaken in a buffer composed of 10 mM ammonium acetate (pH=8) and 1 mM of 4-methyl-3-hydroxypentanoyl-CoA. […]

[7] = molecular target: T3, enoyl-CoA hydratase encoded by phaJ (SEQ ID NO: 16); assay: Native enzyme activity assay in the forward (hydration) direction, spectrophotometry at 263 nm; assay type: biochemical, Aeromonas punctata; details: for acceptance as substrate, hydration direction, inferred from reversibility of the enzyme reaction: inferred from the dehydration results and the favoured hydration direction
Protocol: as §3, §4, §5, §6
The native enzyme activity assay in the forward (hydration) direction was undertaken in a buffer composed of 10 mM ammonium acetate (pH=8) and 1 mM of crotonyl-CoA from Sigma-Aldrich at 30° C. The enzyme activity assay reaction was initiated by adding 0.4 μM of purified enoyl-CoA hydratase to the assay buffer containing the substrate. The enzyme encoded by phaJ accepted crotonyl-CoA as substrate as confirmed via spectrophotometry at 263 nm at 30° C.

[8] = molecular target: T4, linalool dehydratase of SEQ ID NO: 13 (CBW30776.1) (Castellaniella defragrans, UniProt E1XUJ2); assay: Whole cell assay of linalool dehydratase in recombinant E. coli, headspace GC-MS for isoprene; assay type: cell-based; details: 20 mM substrate, 160 mg/mL cells in M9 minimal media, 30° C., 48 h, GC-MS versus empty vector control
T4 construct: expressed in transfected cells; host or cells: E. coli BL21[DE3], whole cells
Protocol: A sequence encoding a C-terminal His-tag encoding the linalool dehydratase of SEQ ID NO: 13 (see FIGS. 9A-9F) was cloned into a pET15 expression vector under control of the T7 promoter such that a C-terminal HIS tagged enzyme could be produced. The expression vector was transformed into a BL21[DE3] E. coli host. The resulting recombinant E. coli strain was cultivated at 30° C. in a 1L shake flask culture containing 100 mL Auto-Induction media and antibiotic selection pressure, shaking at 220 rpm overnight. The pellet from the induced shake flask culture was harvested via centrifugation and used immediately in a whole cell assay.
The pellet was washed and resuspended in M9 minimal media to 160 mg/mL (wet weight) and dispensed into 10 mL crimped glass vials in triplicate. The substrate 3-methyl-3-buten-2-ol was added to a final concentration of 20 mM and incubated at 30° C. at 220 rpm for 48 h. The headspace of each glass vial was analysed by GC-MS for isoprene and compared to the empty vector control (undertaken in triplicate). The gene product of SEQ ID NO: 13 accepted 3-methyl-3-buten-2-ol as substrate as confirmed via GC-MS (see FIG. 15) and synthesized isoprene as reaction product.

T4 sequence (E1XUJ2 27-397): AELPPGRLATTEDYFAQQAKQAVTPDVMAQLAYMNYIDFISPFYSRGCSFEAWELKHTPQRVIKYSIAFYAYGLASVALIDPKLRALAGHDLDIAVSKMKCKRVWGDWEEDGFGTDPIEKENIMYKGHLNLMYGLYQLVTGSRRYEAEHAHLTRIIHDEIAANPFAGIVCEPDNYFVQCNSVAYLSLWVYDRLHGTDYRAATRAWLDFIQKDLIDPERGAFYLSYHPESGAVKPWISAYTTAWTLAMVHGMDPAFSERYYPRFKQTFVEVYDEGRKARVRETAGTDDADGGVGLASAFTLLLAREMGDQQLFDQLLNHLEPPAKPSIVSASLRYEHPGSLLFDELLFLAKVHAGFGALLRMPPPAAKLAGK

C=CC(C)(O)CC(=O)O (stereo not drawn) [3-methyl-3-hydroxypent-4-enoate]
acceptance as substrate, isoprene as reaction product [1]: accepted | acceptance as substrate, isoprene as reaction product [2]: accepted | acceptance as substrate, isoprene as reaction product [3]: accepted | acceptance as substrate, isoprene as reaction product [4]: accepted | acceptance as substrate, isoprene as reaction product [5]: accepted

CCC(C)(O)CC(=O)SCCNC(=O)CCNC(=O)[C@H](O)C(C)(C)COP(=O)(O)OP(=O)(O)OC[C@H]1O[C@@H](n2cnc3c(N)ncnc32)[C@H](O)[C@@H]1OP(=O)(O)O (stereo partly drawn) [3-methyl-3-hydroxypentanoyl-CoA]
acceptance as substrate, reverse (dehydration) direction [6]: accepted

CCC(C)=CC(=O)SCCNC(=O)CCNC(=O)[C@H](O)C(C)(C)COP(=O)(O)OP(=O)(O)OC[C@H]1O[C@@H](n2cnc3c(N)ncnc32)[C@H](O)[C@@H]1OP(=O)(O)O [3-methyl-pent-2-enoyl-CoA]
acceptance as substrate, hydration direction, inferred from reversibility of the enzyme reaction [7]: accepts

C/C=C/C(=O)SCCNC(=O)CCNC(=O)[C@H](O)C(C)(C)COP(=O)(O)OP(=O)(O)OC[C@H]1O[C@@H](n2cnc3c(N)ncnc32)[C@H](O)[C@@H]1OP(=O)(O)O [crotonyl-CoA, reference compound]
acceptance as substrate, forward (hydration) direction ([7]; 1 mM substrate, 0.4 μM purified enzyme, 10 mM ammonium acetate pH 8, 30° C., spectrophotometry at 263 nm): accepted

C=C(C)C(C)O (stereo not drawn) [3-methyl-3-buten-2-ol]
acceptance as substrate, isoprene as reaction product [8]: accepted

CC(C)C(O)CC(=O)SCCNC(=O)CCNC(=O)[C@H](O)C(C)(C)COP(=O)(O)OP(=O)(O)OC[C@H]1O[C@@H](n2cnc3c(N)ncnc32)[C@H](O)[C@@H]1OP(=O)(O)O (stereo partly drawn) [4-methyl-3-hydroxypentanoyl-CoA]
acceptance as substrate, reverse (dehydration) direction [6]: accepted

CC(C)C=CC(=O)SCCNC(=O)CCNC(=O)[C@H](O)C(C)(C)COP(=O)(O)OP(=O)(O)OC[C@H]1O[C@@H](n2cnc3c(N)ncnc32)[C@H](O)[C@@H]1OP(=O)(O)O [4-methyl-pent-2-enoyl-CoA]
acceptance as substrate, hydration direction, inferred from reversibility of the enzyme reaction [7]: accepts

CC(O)CC(=O)SCCNC(=O)CCNC(=O)[C@H](O)C(C)(C)COP(=O)(O)OP(=O)(O)OC[C@H]1O[C@@H](n2cnc3c(N)ncnc32)[C@H](O)[C@@H]1OP(=O)(O)O (mixture of isomers) [3-hydroxybutanoyl-CoA, reference compound]
acceptance as substrate, reverse (dehydration) direction [6]: accepted
